# PubChem BioAssay AID1963835 (Molecular Pharmacology Branch, DTP, NCI, 2024)
# Test system: 699152-130-R-J1-PDC complex spheroid viability
# Experiment: Anticancer human tumor 699152-130-R-J1-PDC patient-derived pancreatic carcinoma cell line growth inhibition [POLQ]
# Details: for IC50: curve of first compound; for viability, T/C: stronger effect = lower value
# Procedure, shortened: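 PDC + HUVEC + MSC complex spheroids; POLQ inhibitors ± partner drugs; top conc. at/near clinical Cmax, else 10 microM (SN-38 1 microM), half-log dilutions; 37 degrees C, 5% CO2.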
# [1] = second compound 0.0316 µM, first compound 0.0316 µM
# [2] = second compound 0.0316 µM, first compound 0.1 µM
# [3] = second compound 0.0316 µM, first compound 0.316 µM
# [4] = second compound 0.0316 µM, first compound 1 µM
# [5] = second compound 0.0316 µM, first compound 3.16 µM
# [6] = second compound 0.0316 µM, first compound 10 µM
# [7] = second compound 0.1 µM, first compound 0.0316 µM
# [8] = second compound 0.1 µM, first compound 0.1 µM
# [9] = second compound 0.1 µM, first compound 0.316 µM
# [10] = second compound 0.1 µM, first compound 1 µM
# [11] = second compound 0.1 µM, first compound 3.16 µM
# [12] = second compound 0.1 µM, first compound 10 µM
# [13] = second compound 0.316 µM, first compound 0.0316 µM
# [14] = second compound 0.316 µM, first compound 0.1 µM
# [15] = second compound 0.316 µM, first compound 0.316 µM
# [16] = second compound 0.316 µM, first compound 1 µM
# [17] = second compound 0.316 µM, first compound 3.16 µM
# [18] = second compound 0.316 µM, first compound 10 µM
# [19] = second compound 1 µM, first compound 0.0316 µM
# [20] = second compound 1 µM, first compound 0.1 µM
# [21] = second compound 1 µM, first compound 0.316 µM
# [22] = second compound 1 µM, first compound 1 µM
# [23] = second compound 1 µM, first compound 3.16 µM
# [24] = second compound 1 µM, first compound 10 µM
# [25] = second compound 3.16 µM, first compound 0.0316 µM
# [26] = second compound 3.16 µM, first compound 0.1 µM
# [27] = second compound 3.16 µM, first compound 0.316 µM
# [28] = second compound 3.16 µM, first compound 1 µM
# [29] = second compound 3.16 µM, first compound 3.16 µM
# [30] = second compound 3.16 µM, first compound 10 µM
# [31] = second compound 10 µM, first compound 0.0316 µM
# [32] = second compound 10 µM, first compound 0.1 µM
# [33] = second compound 10 µM, first compound 0.316 µM
# [34] = second compound 10 µM, first compound 1 µM
# [35] = second compound 10 µM, first compound 3.16 µM
# [36] = second compound 10 µM, first compound 10 µM
# 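Further: spheroids exposed to agents for 7 days before viability reading.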
# 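Wherever viability, T/C is given: percent of DMSO vehicle control viability so 100% = vehicle and 0% = no viable signal.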
compound,measurement,setting,value
CC(=O)O[C@H]1C(=O)[C@@]2(C)[C@H]([C@H](OC(=O)c3ccccc3)[C@]3(O)C[C@H](OC(=O)[C@H](O)[C@@H](NC(=O)c4ccccc4)c4ccccc4)C(C)=C1C3(C)C)[C@]1(OC(C)=O)CO[C@@H]1C[C@@H]2O + Nc1ccc(C#CCN(C(=O)Cc2ncc(C(F)(F)F)cc2C(F)(F)F)c2ccc(F)cc2)nn1,IC50,second compound 0.0316 µM,> 3 µM
same,IC50,second compound 0.1 µM,> 3 µM
same,IC50,second compound 0.316 µM,> 3 µM
same,IC50,second compound 1 µM,> 3 µM
same,IC50,second compound 3.16 µM,> 3 µM
same,IC50,second compound 10 µM,> 3 µM
same,"viability, T/C","second compound 0.0316 µM, first compound 0.00949 µM",82%
same,"viability, T/C","second compound 0.0316 µM, first compound 0.03 µM",66.1%
same,"viability, T/C","second compound 0.0316 µM, first compound 0.0949 µM",62.1%
same,"viability, T/C","second compound 0.0316 µM, first compound 0.3 µM",67.1%
same,"viability, T/C","second compound 0.0316 µM, first compound 0.949 µM",72.8%
same,"viability, T/C","second compound 0.0316 µM, first compound 3 µM",75.6%
same,"viability, T/C","second compound 0.1 µM, first compound 0.00949 µM",79.8%
same,"viability, T/C","second compound 0.1 µM, first compound 0.03 µM",69%
same,"viability, T/C","second compound 0.1 µM, first compound 0.0949 µM",61.4%
same,"viability, T/C","second compound 0.1 µM, first compound 0.3 µM",63.2%
same,"viability, T/C","second compound 0.1 µM, first compound 0.949 µM",68.8%
same,"viability, T/C","second compound 0.1 µM, first compound 3 µM",70.5%
same,"viability, T/C","second compound 0.316 µM, first compound 0.00949 µM",85.3%
same,"viability, T/C","second compound 0.316 µM, first compound 0.03 µM",69.2%
same,"viability, T/C","second compound 0.316 µM, first compound 0.0949 µM",65.5%
same,"viability, T/C","second compound 0.316 µM, first compound 0.3 µM",68%
same,"viability, T/C","second compound 0.316 µM, first compound 0.949 µM",64.8%
same,"viability, T/C","second compound 0.316 µM, first compound 3 µM",72.8%
same,"viability, T/C","second compound 1 µM, first compound 0.00949 µM",83%
same,"viability, T/C","second compound 1 µM, first compound 0.03 µM",72.2%
same,"viability, T/C","second compound 1 µM, first compound 0.0949 µM",65.5%
same,"viability, T/C","second compound 1 µM, first compound 0.3 µM",65.4%
same,"viability, T/C","second compound 1 µM, first compound 0.949 µM",71.6%
same,"viability, T/C","second compound 1 µM, first compound 3 µM",67.7%
same,"viability, T/C","second compound 3.16 µM, first compound 0.00949 µM",80.9%
same,"viability, T/C","second compound 3.16 µM, first compound 0.03 µM",68%
same,"viability, T/C","second compound 3.16 µM, first compound 0.0949 µM",65.4%
same,"viability, T/C","second compound 3.16 µM, first compound 0.3 µM",69.9%
same,"viability, T/C","second compound 3.16 µM, first compound 0.949 µM",84.2%
same,"viability, T/C","second compound 3.16 µM, first compound 3 µM",76.9%
same,"viability, T/C","second compound 10 µM, first compound 0.00949 µM",97%
same,"viability, T/C","second compound 10 µM, first compound 0.03 µM",70.5%
same,"viability, T/C","second compound 10 µM, first compound 0.0949 µM",72.3%
same,"viability, T/C","second compound 10 µM, first compound 0.3 µM",71.9%
same,"viability, T/C","second compound 10 µM, first compound 0.949 µM",86.7%
same,"viability, T/C","second compound 10 µM, first compound 3 µM",78.5%
CC(C)n1c(=O)n(C)c2cnc3cc(F)c(-c4ccc(OCCCN5CCCCC5)nc4)cc3c21 + Nc1ccc(C#CCN(C(=O)Cc2ncc(C(F)(F)F)cc2C(F)(F)F)c2ccc(F)cc2)nn1,IC50,second compound 0.0316 µM,> 10 µM
same,IC50,second compound 0.1 µM,> 10 µM
same,IC50,second compound 0.316 µM,> 10 µM
same,IC50,second compound 1 µM,> 10 µM
same,IC50,second compound 3.16 µM,> 10 µM
same,IC50,second compound 10 µM,> 10 µM
same,"viability, T/C",[1],88.5%
same,"viability, T/C",[2],111%
same,"viability, T/C",[3],93.5%
same,"viability, T/C",[4],97.9%
same,"viability, T/C",[5],104%
same,"viability, T/C",[6],96.8%
same,"viability, T/C",[7],118%
same,"viability, T/C",[8],103%
same,"viability, T/C",[9],106%
same,"viability, T/C",[10],108%
same,"viability, T/C",[11],101%
same,"viability, T/C",[12],86.9%
same,"viability, T/C",[13],98.1%
same,"viability, T/C",[14],105%
same,"viability, T/C",[15],103%
same,"viability, T/C",[16],116%
same,"viability, T/C",[17],104%
same,"viability, T/C",[18],89.5%
same,"viability, T/C",[19],109%
same,"viability, T/C",[20],93.6%
same,"viability, T/C",[21],103%
same,"viability, T/C",[22],111%
same,"viability, T/C",[23],106%
same,"viability, T/C",[24],89%
same,"viability, T/C",[25],116%
same,"viability, T/C",[26],98.2%
same,"viability, T/C",[27],112%
same,"viability, T/C",[28],118%
same,"viability, T/C",[29],108%
same,"viability, T/C",[30],86.2%
same,"viability, T/C",[31],116%
same,"viability, T/C",[32],119%
same,"viability, T/C",[33],121%
same,"viability, T/C",[34],113%
same,"viability, T/C",[35],112%
same,"viability, T/C",[36],91.9%
COc1ccc([C@@H](O)c2cc(-c3ncnc4cc(N5CCOCC5)ccc34)c(F)cc2Cl)nn1 + Cc1cccc(N(C)C(=O)C2C(O)CCN2c2nc(C)cc(C(F)(F)F)c2C#N)c1,IC50,second compound 0.0316 µM,4.08 µM
same,IC50,second compound 0.1 µM,3.67 µM
same,IC50,second compound 0.316 µM,4.14 µM
same,IC50,second compound 1 µM,3.54 µM
same,IC50,second compound 3.16 µM,3.35 µM
same,IC50,second compound 10 µM,4.46 µM
same,"viability, T/C",[1],96.5%
same,"viability, T/C",[2],94.2%
same,"viability, T/C",[3],98.3%
same,"viability, T/C",[4],78.9%
same,"viability, T/C",[5],58.8%
same,"viability, T/C",[6],22.6%
same,"viability, T/C",[7],101%
same,"viability, T/C",[8],106%
same,"viability, T/C",[9],87.7%
same,"viability, T/C",[10],85.3%
same,"viability, T/C",[11],52.5%
same,"viability, T/C",[12],22.9%
same,"viability, T/C",[13],106%
same,"viability, T/C",[14],88.9%
same,"viability, T/C",[15],90.4%
same,"viability, T/C",[16],84%
same,"viability, T/C",[17],56.9%
same,"viability, T/C",[18],22.6%
same,"viability, T/C",[19],109%
same,"viability, T/C",[20],95.8%
same,"viability, T/C",[21],90.1%
same,"viability, T/C",[22],78.9%
same,"viability, T/C",[23],51.4%
same,"viability, T/C",[24],21.2%
same,"viability, T/C",[25],111%
same,"viability, T/C",[26],94.7%
same,"viability, T/C",[27],83.6%
same,"viability, T/C",[28],75.2%
same,"viability, T/C",[29],51%
same,"viability, T/C",[30],27.4%
same,"viability, T/C",[31],101%
same,"viability, T/C",[32],100%
same,"viability, T/C",[33],88.8%
same,"viability, T/C",[34],74.1%
same,"viability, T/C",[35],60.2%
same,"viability, T/C",[36],30.9%
